Test results from patent US20130030017A1, “QUINOLINE DERIVATIVES AS ANTIBACTERIAL AGENTS” (priority 2005, published 2013).
Values after ≈ are worked out from the molar mass of the structure shown.

Columns and labels:
[1] = tested on: Streptococcus pneumoniae (ATCC6305); experiment: Microtitre plate assay, IC90 determination (SPN 6305); assay type: cell-based; settings: 90% inhibitory concentration for bacterial growth, 37° C., 24 hours, resazurin fluorescence
How it was run: (§1)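 Compounds are diluted five-fold across the plate in water containing 0.25% BSA. Bacteria (about 10 to 60 CFU per well) are added in Mueller-Hinton broth, resazurin follows at 3 hours, and plates incubate at 37° C for 24 hours. Fluorescence gives % inhibition and the 90% inhibitory concentration in μg/ml.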

[2] = tested on: methicilline resistant Staphylococcus aureus (MRSA) (a clinical isolate from the University of Antwerp); experiment: Microtitre plate assay, IC90 determination (STA RMETH); assay type: cell-based; settings: 90% inhibitory concentration for bacterial growth, 37° C., 24 hours, resazurin fluorescence
Procedure: (§2) The bacteria used in this study were grown overnight in flasks containing 100 ml Mueller-Hinton Broth (Becton Dickinson—cat. no. 275730) in sterile de-ionized water, with shaking, at 37° C. Stocks (0.5 ml/tube) were stored at −70° C. until use. Bacteria titrations were performed in microtiter plates and colony forming units (CFUs) were determined. In general, an inoculum level of approximately 100 CFUs was used for susceptibility testing.
(§3) Flat-bottom, sterile 96-well plastic microtiter plates were filled with 180 μl of sterile deionized water, supplemented with 0.25% BSA. Subsequently, stock solutions (7.8× final test concentration) of compounds were added in 45 μl volumes in column 2 Serial five-fold dilutions (45 μl in 180 μl) were made directly in the microtiter plates from column 2 to reach column 11. Untreated control samples with (column 1) and without (column 12) inoculum were included in each microtiter plate. Depending on the bacteria type, approximately 10 to 60 CFU per well of bacteria inoculum (100 TCID50), in a volume of 100 μl in 2.8× Mueller-Hinton broth medium, was added to the rows A to H, except column 12. The same volume of broth medium without inoculum was added to column 12 in row A to H. The cultures were incubated at 37° C. for 24 hours under a normal atmosphere (incubator with open air valve and continuous ventilation). At the end of incubation, one day after inoculation, the bacterial growth was quantitated fluorometrically. Therefore resazurin (0.6 mg/ml) was added in a volume of 20 μl to all wells 3 hours after inoculation, and the plates were re-incubated overnight. A change in colour from blue to pink indicated the growth of bacteria. The fluorescence was read in a computer-controlled fluorometer (Cytofluor Biosearch) at an excitation wavelength of 530 nm and an emission wavelength of 590 nm. The % growth inhibition achieved by the compounds was calculated according to standard methods. The IC90 (expressed in μg/ml) was defined as the 90% inhibitory concentration for bacterial growth.

[3] = tested on: Enterococcus faecalis (ATCC29212); experiment: Microtitre plate assay, IC90 determination (EFA 29212); assay type: cell-based; settings: 90% inhibitory concentration for bacterial growth, 37° C., resazurin fluorescence; for IC90 EFA 29212: 24 hours
How it was run: as §1

[4] = tested on: Bacillus subtilis (ATCC43639); experiment: Microtitre plate assay, IC90 determination (BSU 43639); assay type: cell-based; settings: 90% inhibitory concentration for bacterial growth, 37° C., 24 hours, resazurin fluorescence
Procedure: as §2, §3

[5] = tested on: Staphylococcus aureus (ATCC25923); experiment: Microtitre plate assay, IC90 determination (STA 25923); assay type: cell-based; settings: 90% inhibitory concentration for bacterial growth, 37° C., 24 hours, resazurin fluorescence
Procedure: as §2
Flat-bottom, sterile 96-well plastic microtiter plates were filled with 180 μl of sterile deionized water, supplemented with 0.25% BSA. Subsequently, stock solutions (7.8× final test concentration) of compounds were added in 45 μl volumes in column 2 Serial five-fold dilutions (45 μl in 180 μl) were made directly in the microtiter plates from column 2 to reach column 11. Untreated control samples with (column 1) and without (column 12) inoculum were included in each microtiter plate. […] At the end of incubation, one day after inoculation, the bacterial growth was quantitated fluorometrically. […] The fluorescence was read in a computer-controlled fluorometer (Cytofluor Biosearch) at an excitation wavelength of 530 nm and an emission wavelength of 590 nm. The % growth inhibition achieved by the compounds was calculated according to standard methods. […]

[6] = tested on: Staphylococcus aureus (ATCC29213); experiment: Microtitre plate assay, IC90 determination (STA 29213); assay type: cell-based; settings: 90% inhibitory concentration for bacterial growth, 37° C., resazurin fluorescence; for IC90 STA 29213: 24 hours
How it was run: as §1

[7] = tested on: Streptococcus pyogens (ATCC8668); experiment: Microtitre plate assay, IC90 determination (SPY 8668); assay type: cell-based; settings: 90% inhibitory concentration for bacterial growth, 37° C., resazurin fluorescence; for IC90 SPY 8668: 24 hours
How it was run: as §1

[8] = tested on: Pseudomonas aeruginosa (ATCC27853); experiment: Microtitre plate assay, IC90 determination (PAE 27853); assay type: cell-based; settings: 90% inhibitory concentration for bacterial growth, 37° C., resazurin fluorescence; for IC90 PAE 27853: 24 hours
How it was run: as §1

[9] = tested on: Listeria monocytogenes (ATCC49594); experiment: Microtitre plate assay, IC90 determination (LMO 49594); assay type: cell-based; settings: 90% inhibitory concentration for bacterial growth, 37° C., 24 hours, resazurin fluorescence
Procedure: as §2, §3

Row | Structure (SMILES) | IC90 SPN 6305 [1] [µg/mL] | IC90 STA RMETH [2] [µg/mL] | IC90 EFA 29212 [3] [µg/mL] | IC90 BSU 43639 [4] [µg/mL] | IC90 STA 25923 [5] [µg/mL] | IC90 STA 29213 [6] [µg/mL] | IC90 SPY 8668 [7] [µg/mL] | IC90 PAE 27853 [8] [µg/mL] | IC90 LMO 49594 [9] [µg/mL] | IC90 [2] [µg/mL] | IC90 ([3]; Enterococcus faecalis, ATCC29212, 24 h) [µg/mL] | melting point [°C] | IC90 ([7]; Streptococcus, ATCC8668, 24 h) [µg/mL] | IC90 ([8]; Pseudomonas aeruginosa, ATCC27853, 24 h) [µg/mL] | IC90 [9] [µg/mL] | IC90 ([6]; Staphylococcus aureus, ATCC29213, 24 h) [µg/mL]
1 | COc1nc2ccc(Br)cc2cc1C(c1ccccc1)C(O)(CCc1ccccc1)CCN(C)C (racemic) [Compound 14] | 42.4 (≈ 79.5 µM) | 13.4 (≈ 25.1 µM) | 9.5 (≈ 17.8 µM) | 13.4 (≈ 25.1 µM) | 11.9 (≈ 22.3 µM) | 13.4 (≈ 25.1 µM) | 10.6 (≈ 19.9 µM) | 9.5 (≈ 17.8 µM) | 10.6 (≈ 19.9 µM) |  |  |  |  |  |  | 
2 | COc1nc2ccc(Br)cc2cc1C(c1ccccc1)C(O)(CCc1ccccc1)CCN(C)C (racemic) [Compound 15] | 7.5 (≈ 14.1 µM) | 10.6 (≈ 19.9 µM) | 4.8 (≈ 9 µM) | 10.6 (≈ 19.9 µM) | 4.8 (≈ 9 µM) | 4.8 (≈ 9 µM) | 4.2 (≈ 7.87 µM) | 4.8 (≈ 9 µM) | 2.1 (≈ 3.94 µM) |  |  |  |  |  |  | 
3 | COc1nc2ccc(Br)cc2cc1C(c1ccccc1)C(O)(CCc1ccc(F)cc1)CCN(C)C (racemic) [Compound 50] | 0.4 (≈ 0.725 µM) | 8.7 (≈ 15.8 µM) | 1.7 (≈ 3.08 µM) | 9.8 (≈ 17.8 µM) |  | 1.7 (≈ 3.08 µM) | 1.7 (≈ 3.08 µM) | 1.7 (≈ 3.08 µM) | 8.7 (≈ 15.8 µM) |  |  |  |  |  |  | 
4 | COc1nc2ccc(Br)cc2cc1C(c1ccccc1)C(O)(CCc1cccc2ccccc12)CCN(C)C (stereo not shown) [Compound 8] | 11.6 (≈ 19.9 µM) |  |  |  |  | 1.9 (≈ 3.26 µM) |  |  |  | 1.9 (≈ 3.26 µM) | 1.9 (≈ 3.26 µM) | 160 | 1.9 (≈ 3.26 µM) | 2.3 (≈ 3.94 µM) | 1.9 (≈ 3.26 µM) | 
5 | COc1nc2ccc(Br)cc2cc1C(c1ccc(Cl)cc1)C(O)(CCc1ccccc1)CCN(C)C (stereo not shown) [Compound 69] | 0.5 (≈ 0.88 µM) |  | 1.8 (≈ 3.17 µM) |  |  |  | 4.0 (≈ 7.04 µM) | 1.8 (≈ 3.17 µM) |  | 12.7 (≈ 22.4 µM) |  |  |  |  |  | 1.8 (≈ 3.17 µM)
6 | COc1nc2ccc(Br)cc2cc1C(c1ccc(Cl)cc1)C(O)(CCc1ccccc1)CCN(C)C (stereo not shown) [Compound 70] | 1.8 (≈ 3.17 µM) | 12.7 (≈ 22.4 µM) | 56.8 (≈ 100 µM) |  |  | 1.8 (≈ 3.17 µM) | 45.1 (≈ 79.4 µM) | 45.1 (≈ 79.4 µM) |  |  |  |  |  |  |  | 
7 | COc1ccc(C(c2cc3cc(Br)ccc3nc2OC)C(O)(CCc2ccccc2)CCN(C)C)cc1 (stereo not shown) [Compound 74] | 1.8 (≈ 3.19 µM) |  | 1.8 (≈ 3.19 µM) |  |  | 1.8 (≈ 3.19 µM) | 1.8 (≈ 3.19 µM) | 1.8 (≈ 3.19 µM) |  | 12.6 (≈ 22.4 µM) |  |  |  |  |  | 
